Article PMC7108740, “Exploring the molecular structures that confer ligand selectivity for galanin type II and III receptors” (PLoS ONE, 2020)
Ends that are not written are not given here.

Legend:
human GALR2 = molecular target: T1, human GALR2 (Homo sapiens, UniProt O43603); test: SRE-luc luciferase assay, WT GALR2; assay type: cell-based; conditions: SRE-luc in HEK293 Gqi cells, ligand 6 h, mean ± SE, at least three independent experiments, SEM
T1 construct: host or cells: HEK293 cells stably expressing Gqi
T1 sequence (O43603 1-387): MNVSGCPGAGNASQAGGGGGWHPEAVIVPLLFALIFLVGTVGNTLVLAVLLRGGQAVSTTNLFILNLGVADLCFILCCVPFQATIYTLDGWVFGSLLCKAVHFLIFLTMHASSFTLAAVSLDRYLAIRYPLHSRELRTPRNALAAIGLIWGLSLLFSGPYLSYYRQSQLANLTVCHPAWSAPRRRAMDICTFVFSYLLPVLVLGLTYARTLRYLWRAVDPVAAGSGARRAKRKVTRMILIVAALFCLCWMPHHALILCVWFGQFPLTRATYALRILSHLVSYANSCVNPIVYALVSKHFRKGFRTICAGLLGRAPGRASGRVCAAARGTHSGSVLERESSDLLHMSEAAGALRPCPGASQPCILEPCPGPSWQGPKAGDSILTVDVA
Text: The pcDNA3.1 vector was purchased from Invitrogen (San Diego, CA, USA). The serum response element (SRE)-luciferase (SRE-luc) vector containing a single copy of the SRE (CCATATTAGG) conjugated with luciferase was purchased from Stratagene (La Jolla, CA, USA). The cDNAs for human GALR1, GALR2, and GALR3 were obtained from BRN SCIENCE, Inc. The cDNAs were inserted into the EcoRⅠ and XhoⅠ sites of pcDNA3.1.
HEK293 cells stably expressing the Gqi construct, which allows induction of Gq-dependent signaling pathways upon activation of a Gi-coupled receptor [14, 30], were maintained in Dulbecco's Modified Eagle's Medium (DMEM) in the presence of 10% fetal bovine serum and 1% penicillin and streptomycin. For all transfections, 200 ng DNA (100 ng receptor and 100 ng SRE-luc) mixed with lipofectamine 2000 was applied to 60–80% confluent cells on a multi-well plate according to the manufacturer's instructions (Invitrogen, Carlsbad, CA).
For luciferase assays, HEK293 Gqi cells were seeded on 48-well plates at a density of 2.5 × 10^4 cells/well one day before transfection. A mixture including 100 ng SRE-luc reporter construct, 100 ng expression plasmid, and lipofectamine 2000 reagent in diluted Opti-MEM (Gibco) was incubated at room temperature for 20 min and then added into each well according to the manufacturer's instructions (Invitrogen, CA, USA). Before exposure to the ligands, the cells were maintained in serum-free DMEM for 16–18 h. Approximately 48 h after transfection, the cells were treated with ligand for 6 h. The cells were then lysed by the addition of 100 μl lysis buffer. The luciferase activity in 50 μl cell extract was determined using a luciferase assay system according to the standard protocol for the Synergy 2 Multi-Mode Microplate Reader (BioTek, Winooski, VT, USA).
Data analysis was performed by non-linear regression with a sigmoidal dose-response curve. The concentrations of agonists that induced half-maximal stimulation (EC50) were calculated using the GraphPad PRISM5 software (GraphPad software, Inc., San Diego, CA). All data are presented as the mean ± standard error (SE) of at least three independent experiments.

[1] = molecular target: T2, GALR3 single mutant L^100F (Homo sapiens, UniProt O60755, L100F); test: SRE-luc luciferase assay, GALR3 L100F; assay type: cell-based; conditions: GALR3 L^100F; SRE-luc in HEK293 Gqi cells, ligand 6 h; mean ± S.E.; SEM
T2 construct: expressed in transfected cells; host or cells: HEK293 cells stably expressing Gqi
T2 sequence (O60755 1-368 L100F): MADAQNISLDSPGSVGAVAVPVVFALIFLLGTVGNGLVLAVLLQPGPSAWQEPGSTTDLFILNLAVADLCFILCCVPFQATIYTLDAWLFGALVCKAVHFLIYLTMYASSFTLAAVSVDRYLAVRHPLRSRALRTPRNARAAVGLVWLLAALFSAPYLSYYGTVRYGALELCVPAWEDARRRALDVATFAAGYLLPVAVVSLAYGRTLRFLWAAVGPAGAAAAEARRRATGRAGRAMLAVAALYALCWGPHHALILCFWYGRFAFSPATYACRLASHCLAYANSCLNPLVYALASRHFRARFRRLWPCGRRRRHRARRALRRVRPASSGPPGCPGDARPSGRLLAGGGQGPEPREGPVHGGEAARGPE
Text: For domain swapping between GALR2 and GALR3, individual cDNA fragments of interest were amplified by polymerase chain reaction (PCR) with Pfu polymerase (ELPIS Biotech, Daejeon, Korea) and two specific primers, one corresponding to the 5' or 3' end of the GALR2 or GALR3 cDNA and the other to the region of overlap between the two receptors. The two resulting fragments, one from GALR2 and the other from GALR3, were subjected to a second round of PCR to generate the chimeric cDNAs. To construct single, double-, triple-, pentuple-, hextuple-, and septuple-mutant receptors, amino acids of GALR3 were substituted for the amino acids at the corresponding positions in GALR2 using PCR-based site-directed mutagenesis. All of the chimeric constructs were cloned into the pcDNA3 expression vector at HindⅢ and XbaⅠ sites. The DNA sequences of the chimeras were verified by automatic sequencing. HEK293 cells stably expressing the Gqi construct, which allows induction of Gq-dependent signaling pathways upon activation of a Gi-coupled receptor [14, 30], were maintained in Dulbecco's Modified Eagle's Medium (DMEM) in the presence of 10% fetal bovine serum and 1% penicillin and streptomycin. For all transfections, 200 ng DNA (100 ng receptor and 100 ng SRE-luc) mixed with lipofectamine 2000 was applied to 60–80% confluent cells on a multi-well plate according to the manufacturer's instructions (Invitrogen, Carlsbad, CA). For luciferase assays, HEK293 Gqi cells were seeded on 48-well plates at a density of 2.5 × 10^4 cells/well one day before transfection. […] The luciferase activity in 50 μl cell extract was determined using a luciferase assay system according to the standard protocol for the Synergy 2 Multi-Mode Microplate Reader (BioTek, Winooski, VT, USA). […] The concentrations of agonists that induced half-maximal stimulation (EC50) were calculated using the GraphPad PRISM5 software (GraphPad software, Inc., San Diego, CA). […]

Molecule	EC50 (human GALR2)	EC50 [1]
NWTPNAMLYLKGAQ-NH2 [N^5-SPX]	87.7 ± 10.6 nM	288 ± 84.2 nM
CSCC[C@H](NC(=O)[C@H](C)NC(=O)[C@H](CCC(N)=O)NC(=O)[C@@H]1CCCN1C(=O)[C@@H](NC(=O)[C@H](Cc1c[nH]c2ccccc12)NC(=O)[C@@H](N)CC(N)=O)[C@@H](C)O)C(=O)N[C@@H](CC(C)C)C(=O)N[C@@H](Cc1ccc(O)cc1)C(=O)N[C@@H](CC(C)C)C(=O)N[C@@H](CCCCN)C(=O)NCC(=O)N[C@@H](C)C(=O)N[C@@H](CCC(N)=O)C(N)=O [SPX, reference compound]	–	66.1 ± 13.6 nM
NWTPQAALYLKGAQ-NH2 [A^7-SPX]	40.7 ± 13.2 nM	269 ± 45.3 nM
NWTPQAMLYLKGPQ-NH2 [P^13-SPX]	33.1 ± 6.19 nM	–
